# Data as given in patent publication US9492398B2, “Nanocapsulation of essential oils for preventing or curing infectious diseases alone or with an antibiotic” (Eydo Pharma, priority 2011, dated 2016).
# Where two headings read alike, the source gives them in different places.
# Tests used:
# [1] = from the literature; cited from earlier work
# [2] = tested on: S. aureus ATCC25923; assay: Minimal inhibitory concentration on Mueller Hinton Agar (Example 13); type: cell-based, Staphylococcus aureus; conditions: Staphlococcus aureus
# Method: (§1) Mueller Hinton Agar was used in a standardized disk diffusion procedure for determining the susceptibility of rapidly growing aerobic microorganisms to antimicrobial agents.
# (§2) The test to evaluate the increase in resistance was carried out with a concentration of the product of two times the Minimal Inhibitory Concentration (MIC).
# [3] = tested on: SARM S. aureus ATCC25923; assay: as above; type: cell-based, Staphylococcus aureus; conditions: Staphylococcus aureus
# Method: as §1, §2
# [4] = tested on: SARM S. aureus ATCC25923; assay: In vitro emergence of resistance over passages; type: cell-based, Staphylococcus aureus
# Method: as §1, §2
compound,measurement,setting,value
CN(C)[C@@H]1C(O)=C(C(N)=O)C(=O)[C@@]2(O)C(O)=C3C(=O)c4c(O)ccc(Cl)c4[C@@H](O)[C@H]3C[C@@H]12 [Demeclocyclin],LD50 in mice by intraperitoneal injection,[1],120 mg/kg
CC[C@H]1OC(=O)[C@H](C)[C@@H](O[C@H]2C[C@@](C)(OC)[C@@H](O)[C@H](C)O2)[C@H](C)[C@@H](O[C@@H]2O[C@H](C)C[C@H](N(C)C)[C@H]2O)[C@](C)(O)C[C@@H](C)C(=O)[C@H](C)[C@@H](O)[C@]1(C)O [Erythromycin],LD50 in mice by intraperitoneal injection,[1],280 mg/kg
CO[C@@H]1[C@@H](O[C@@H]2O[C@H](C)[C@@H](O[C@H]3C[C@@](C)(O)[C@@H](OC(=O)CC(C)C)[C@H](C)O3)[C@H](N(C)C)[C@H]2O)[C@@H](CC=O)C[C@@H](C)[C@@H](O)/C=C/C=C/C[C@@H](C)OC(=O)C[C@H]1OC(C)=O [Josamycin],LD50 in mice by intraperitoneal injection,[1],780 mg/kg
CCN1CCN(C(=O)N[C@@H](C(=O)N[C@@H]2C(=O)N3[C@@H]2SC(C)(C)[C@@H]3C(=O)O)c2ccccc2)C(=O)C1=O [Piperacillin],LD50 in mice by intraperitoneal injection,[1],9970 mg/kg
CO[C@H]1/C=C/O[C@@]2(C)Oc3c(C)c(O)c4c(O)c(c(/C=N/N5CCN(C)CC5)c(O)c4c3C2=O)NC(=O)/C(C)=C\C=C\[C@H](C)[C@H](O)[C@@H](C)[C@@H](O)[C@@H](C)[C@H](OC(C)=O)[C@@H]1C [Rifampicin],2 times the minimal inhibitory concentration,[2],160 ng/mL
same,MIC,"[3]; ATCC25923, read-out: Minimal inhibitory concentration",8 ng/mL
same,MIC,"[3]; ATCC25923, read-out: Minimal inhibitory concentration/4",2 ng/mL
same,"appearance of resistance, passage",[4]; Staphylococcus aureus,6
same,concentration at which inhibitory activity reappeared,[4]; after appearance of resistance,0.38 ml/I
same,times the initial minimal inhibitory concentration,[4]; after appearance of resistance,47.5
